Laboratory results reported in US8648065B2, “Antibacterial medicinal composition of enhanced oral absorptivity” (Meiji Seika Pharma Co., Ltd., priority 2002, dated 2014).

Assay: Oral absorbability of cefditoren pivoxil suspensions in dogs
Assay type: in vivo
Settings: suspension of crystals as compared to an amorphous suspension
Text: On the other hand, since amorphous cefditoren pivoxil is apt to change into a crystalline state in a solution, an antibiotic pharmaceutical composition comprising amorphous cefditoren pivoxil still needs to be improved.

Oral absorbability in dogs (in words): extremely low oral absorbability
SMILES: CO/N=C(\C(=O)N[C@@H]1C(=O)N2C(C(=O)OCOC(=O)C(C)(C)C)=C(/C=C\c3scnc3C)CS[C@H]12)c1csc(N)n1 [cefditoren pivoxil, (−)-(6R,7R)-7-[(Z)-2-(2-aminothiazol-4-yl)-2-methoxyiminoacetamido]-3-[(Z)-2-(4-methylthiazol-5-yl)ethenyl]-8-oxo-5-thia-1-azabicyclo[4.2.0]oct-2-ene-2-carboxylic acid 2,2-dimethylpropionyloxymethyl ester]
